{
  "source": "patent US11357817B2",
  "about": "“Immunoproteasome inhibitor” (The Regents of the University of California, priority 2017, dated 2022)",
  "key": {"[1]": {"test_system": "20S Plasmodium proteasome (Pf20S) β5 subunit", "test": "Proteasome activity assay, Pf20S β5 (suc-LLVY-AMC)", "type": "biochemical, Plasmodium falciparum", "protocol": "Asynchronous P. falciparum cultures were grown up to 4-5% parasitemia, in 300 mL of RPMI media at 5.0% hematocrit. Cultures were then transferred to 50 mL conical tubes, pelleted via centrifugation at 800 g for 5 min, and washed once with 1×PBS and pelleted again as above. The PBS was removed and lysis buffer (0.15% saponin in PBS) was added on ice in 10 pellet volumes. Upon lysis of red blood cells, indicated by a clear red supernatant, the lysed cultures were centrifuged at 3200×g for 12 minutes at 4° C. The supernatant was removed by aspiration and the cells were washed twice using chilled PBS in microcentrifuge tubes. The cell pellets were then incubated on ice for 1 hour with occasional vortexing in a buffer consisting of 20 mM Tris-HCl pH 7.5, 5 mM MgCl2, 1 mM DTT, 100 μM E-64 and 1 mM AEBSF. This sample was then subjected to 3 rounds of freezing (−80° C.) and thawing (37° C.) and centrifugation at 6000×g for 10 min. The supernatant containing soluble P. falciparum protein was quantified by the BCA method (Pierce).\nP. falciparum proteasome was enriched by two-chromatographic steps reported previously (10). In brief, 10 mg of P. falciparum protein was concentrated to 1 mL using a 100 kDa centrifugal filter unit (Amicon) and loaded onto a 5 mL anion exchange HiTrap DEAE FF column (GE Healthcare). […] The AMC fluorophore release was monitored at Ex 340/Em 465 nm at 24° C. using a Synergy HTX multi-mode reader (Biotek). […] Proteins were eluted using 20 mM Tris-HCl pH 7.5, 100 mM NaCl, 10% glycerol and 1 mL fractions were collected, evaluated for protease activity and pooled.\nTo estimate the concentration of Pf20S in the final pooled sample, protein was denatured and loaded into a 4-12% Bis-Tris Plus gel (Thermo Fisher Scientific) beside 60 to 100 ng of human constitutive proteasome (Boston Biochem). […] For inhibition assays, inhibitor and substrate were added simultaneously to the enzyme and the rate of AMC release was determined from 60 to 120 minutes and compared to a DMSO control."}, "[2]": {"test_system": "P. falciparum Dd2", "test": "P. falciparum Dd2 asexual blood stage SYBR Green I compound sensitivity assay", "type": "cell-based, Plasmodium falciparum", "conditions": "Plasmodium falciparum, DD2, 72 h, asexual blood stage, 72 hour SYBR green assay", "protocol": "P. falciparum Dd2 strain parasites were cultured under standard conditions (31), using RPMI media supplemented with 0.05 mg/ml gentamycin, 0.014 mg/mL hypoxanthine (prepared fresh), 38.4 mM HEPES, 0.2% Sodium Bicarbonate, 3.4 mM Sodium Hydroxide, 0.05% O+ Human Serum (Denatured at […] for 40 min and From Interstate Blood Bank, Memphis, Tenn.) and 0.0025% Albumax). Human O+ whole blood was obtained from TSRI blood bank (La Jolla, Calif.). Leukocyte-free erythrocytes are stored at 50% hematocrit in RPMI-1640 screening media (as above, but without O+ human serum and with 2× albumax concentration) at 4° C. for one to three weeks before experimental use. Cultures were monitored every one to two days via Giemsa-stained thin smears.\nCompound susceptibility was measured using the malaria SYBR Green I-based fluorescence assay (32). Asynchronous P. falciparum parasites (Dd2 strain) were cultured in standard conditions before being plated for the assays. Each compound was tested over 72 hours in technical duplicates on a twelve-point concentration curve prepared by three-fold dilution from 6.7 μM to 0.11 nM. At least three independent experiments were carried out for IC50 determination. Artemisinin and chloroquine were used as controls. IC50 values were obtained using normalized fluorescence intensity from SYBR green I and analyzed via non-linear variable slope four-parameter regression curve-fitting model in Prism 6 (GraphPad Software Inc)."}, "[3]": {"target": "Pf20S (Plasmodium falciparum, UniProt A0A5K1K7U1+Q8IJT1)", "sequence (A0A5K1K7U1 entry or part of it)": "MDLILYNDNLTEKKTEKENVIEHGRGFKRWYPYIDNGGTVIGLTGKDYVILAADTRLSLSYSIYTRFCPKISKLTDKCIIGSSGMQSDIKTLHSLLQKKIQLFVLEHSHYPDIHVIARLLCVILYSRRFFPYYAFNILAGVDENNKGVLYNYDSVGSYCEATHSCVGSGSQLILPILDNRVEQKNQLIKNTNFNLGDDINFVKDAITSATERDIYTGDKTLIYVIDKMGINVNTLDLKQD", "sequence (Q8IJT1 entry or part of it)": "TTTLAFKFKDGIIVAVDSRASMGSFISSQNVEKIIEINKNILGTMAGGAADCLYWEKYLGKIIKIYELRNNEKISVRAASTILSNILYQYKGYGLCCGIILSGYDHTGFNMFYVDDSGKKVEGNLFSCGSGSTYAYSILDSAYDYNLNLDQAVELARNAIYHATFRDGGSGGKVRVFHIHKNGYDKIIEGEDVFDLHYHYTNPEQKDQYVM", "test": "Calculation of inhibition constants (inactivation kinetics), Pf20S", "type": "biochemical", "protocol": "The rate of AMC release was calculated in the presence of serial dilution of each inhibitor. The rate of product formation were calculated at 30 min intervals for 4 hours, and normalized to activity DMSO control to calculate inactivation curves. Kobs values for each inhibitor concentration were calculated from inactivation curves, and inhibition constants KI and kinact were calculated by non-linear regression of Kobs and inhibitor concentration using GraphPad Prism 6 software."}},
  "data": [
    {"smiles": "CCCCCC(=O)N[C@@H](C(=O)N[C@@H](CCCC)C(=O)N[C@@H](CC(C)C)C(=O)[C@@]1(C)CO1)C(C)C", "note": "[Analog 18, (S)-2-((R)-2-hexanamido-3-methylbutanamido)-N—((S)-4-methyl-1-((R)-2-methyloxiran-2-yl)-1-oxopentan-2-yl)hexanamide]", "values": [
      {"measurement": "decrease in β5 activity", "setting": "[1]; 450 nM compound, proteasome not named", "result": 45, "unit": "%"},
      {"measurement": "potency towards Pf20S compared with c20S", "setting": "[1]; β5 activity, 50 nM compound", "result": "more potent towards Pf20S than c20S"},
      {"measurement": "IC50", "setting": "[2]", "result": "3.27 ± 0.232", "unit": "nM"},
      {"measurement": "Ki", "setting": "[3]; Pf20S", "result": 372, "unit": "nM"},
      {"measurement": "reduction in potency to the Pf20S proteasome", "setting": "[3]; kinact/Ki, 18 versus 1", "result": 10, "unit": "fold"}
    ]}
  ]
}
